Tests used:
[1] = xn = mol fraction of the nth substance listed; conditions: 308.15 K, 101.33 kPa, Liquid
[2] = molar heat capacity at constant pressure; xn = mol fraction of the nth substance listed; conditions: 101.33 kPa, Liquid

OCCc1ccccc1 [2-phenylethanol] + C[S+](C)[O-]
[1]
Conditions | mass density [kg/m3] | viscosity [mPa·s]
x2 = 0.0435 | 1011.25 | 7.049
x2 = 0.1521 | 1017.45 | 6.133
x2 = 0.2758 | 1024.6 | 5.162
x2 = 0.3564 | 1029.49 | 4.611
x2 = 0.4566 | 1035.91 | 3.976
x2 = 0.5477 | 1042.18 | 3.446
x2 = 0.6247 | 1047.95 | 3.052
x2 = 0.7102 | 1054.95 | 2.652
x2 = 0.7707 | 1060.33 | 2.398
x2 = 0.8346 | 1066.5 | 2.157
x2 = 0.8653 | 1069.64 | 2.056
x2 = 0.9433 | 1078.31 | 1.806

molar heat capacity at constant pressure [J/K/mol], [2]
Conditions | 298.15 K | 308.15 K
x2 = 0 | 239.6 | 245.3
x2 = 0.08581 | 235 | 240.8
x2 = 0.1638 | 218.3 | 223.2
x2 = 0.2999 | 190.7 | 194.2
x2 = 0.4205 | 185 | 188.4
x2 = 0.519 | 185.5 | 188.2
x2 = 0.6293 | 169.3 | 171.3
x2 = 0.6713 | 171 | 172.8
x2 = 0.7066 | 162.6 | 164.6
x2 = 0.7919 | 162.7 | –
x2 = 0.8596 | 156.2 | –
x2 = 0.937 | 157.8 | –
x2 = 0.9688 | 143.5 | –
